Experimental data taken from patent US20170348322A1, “BK Channels as Non-Genomic Estrogen Targets for Overactive Bladder” (priority 2016, published 2017).

Key:
human DSM cells = experiment: Resting membrane potential (RMP) of DSM cells, current-clamp; format: cell-based
Protocol: (§1) Patch-clamp electrophysiological experiments: Patch-clamp experiments were performed as previously described. (Hristov K L, Chen M, Kellett W F, Rovner E S, and Petkov G V. Large-conductance voltage- and Ca2+-activated K+ channels regulate human detrusor smooth muscle function. Am J Physiol Cell Physiol 301: C903-912, 2011; Hristov K L, Parajuli S P, Soder R P, Cheng Q, Rovner E S, and Petkov G V. Suppression of human detrusor smooth muscle excitability and contractility via pharmacological activation of large conductance Ca2+-activated K+ channels. Am J Physiol Cell Physiol 302: C1632-1641, 2012; Malysz J, Rovner E S, and Petkov G V. Single-channel biophysical and pharmacological characterizations of native human large-conductance calcium-activated potassium channels in freshly isolated detrusor smooth muscle cells. Pflugers Arch 465: 965-975, 2013; Parajuli S P, Hristov K L, Cheng Q P, Malysz J, Rovner E S, and Petkov G V. Functional link between muscarinic receptors and large-conductance Ca2+-activated K+ channels in freshly isolated human detrusor smooth muscle cells. Pflugers Arch 467: 665-675, 2015.)
The current disclosure applied the amphotericin B-perforated whole cell patch-clamp technique to record transient BK currents (TBKCs), depolarization-induced steady-state whole cell BK currents, and the resting membrane potential (RMP) of human freshly-isolated DSM cells. TBKCs in DSM cells were recorded at the holding potential of −20 mV. Depolarization-induced steady-state whole cell BK currents were elicited by holding the DSM cells at −70 mV and then brief, 200 ms depolarization steps were applied from −40 mV to +80 mV in increments of 20 mV. Single BK channel activity was recorded from inside-out excised membrane patches using symmetrical K^+ (140 mM) solutions, at a holding potential of −60 mV (Vh=−60 mV). The electrochemical driving force for K^+ in these experimental conditions was +60 mV (VDV=60 mV). Paxilline (1 μM), a selective BK channel inhibitor was used to dissect their functional role in mediating 17β-estradiol induced effects on DSM function. All patch-clamp experiments were conducted at room temperature (22-23° C.).
(§2) Solutions and drugs: Ca^2+-free dissection solution contained (in mM): 80 monosodium glutamate, 55 NaCl, 6 KCl, 10 glucose, 10 HEPES,2 MgCl2, and the pH was adjusted to 7.3 with NaOH. […] Extracellular and patch-pipette solutions for single BK channel recordings contained (in mM): 140 KCl, 1.08 MgCl2, 5 EGTA, 10 HEPES, and 3.16 CaCl2, adjusted to pH 7.2 with NaOH (Ca^2+ free concentration was calculated ˜300 nM with WEBMAXC Standard, http://www.stanford.edu/˜cpatton/webmaxcS.htm, Chris Patton). […]

pig DSM isolated strips = conditions: 17β-estradiol 30 μM; cited from earlier work
BK channels [1] = target: T1, BK channels (Homo sapiens, UniProt Q12791+Q16558); experiment: Transient BK currents (TBKCs), perforated whole cell patch-clamp, freshly-isolated DSM cells; format: cell-based; conditions: 17β-estradiol 100 nM, holding potential −20 mV
T1 construct: Human single DSM cells were enzymatically isolated as previously described; endogenous in cells; host or cells: freshly-isolated human detrusor smooth muscle (DSM) cells from open bladder surgery specimens
Source text: as §1, with “DSM single cell isolation: Human single DSM cells” for “Patch-clamp electrophysiological experiments: Patch-clamp experiments”, “enzymatically isolated” for “performed”, “2012;” for “2012; Malysz J, Rovner E S, and Petkov G V. Single-channel biophysical and pharmacological characterizations of native human large-conductance calcium-activated potassium channels in freshly isolated detrusor smooth muscle cells. Pflugers Arch 465: 965-975, 2013;”, “2015.) […]” for “2015.)”
(§3) The current disclosure applied the amphotericin B-perforated whole cell patch-clamp technique to record transient BK currents (TBKCs), depolarization-induced steady-state whole cell BK currents, and the resting membrane potential (RMP) of human freshly-isolated DSM cells. TBKCs in DSM cells were recorded at the holding potential of −20 mV. […] Single BK channel activity was recorded from inside-out excised membrane patches using symmetrical K^+ (140 mM) solutions, at a holding potential of −60 mV (Vh=−60 mV). […]

[2] = system: human DSM isolated strips; experiment: Isometric tension recordings: nerve-evoked (EFS-induced) contractions of DSM isolated strips; format: cell-based; conditions: 17β-estradiol 100 nM; in particular at lower stimulation frequencies (0.5-20.0 Hz); n=7, N=3; P<0.05
Protocol: (§4) Isometric DSM tension recordings: Isometric DSM tension recordings of human DSM isolated strips (˜7-8 mm long and ˜4-5 mm wide) were conducted as previously described (Hristov K L, Chen M, Kellett W F, Rovner E S, and Petkov G V. Large-conductance voltage- and Ca2+-activated K+ channels regulate human detrusor smooth muscle function. Am J Physiol Cell Physiol 301: C903-912, 2011; Hristov K L, Parajuli S P, Soder R P, Cheng Q, Rovner E S, and Petkov G V. Suppression of human detrusor smooth muscle excitability and contractility via pharmacological activation of large conductance Ca2+-activated K+ channels. Am J Physiol Cell Physiol 302: C1632-1641, 2012).
as §2

rat DSM isolated strips = conditions: 17β-estradiol 30 μM; cited from earlier work
BK channels [3] = target: T1, BK channels; experiment: Single BK channel recordings, inside-out excised membrane patches of DSM cells; format: biochemical; conditions: 17β-estradiol 100 nM, n=9, N=7
Protocol: (§5) Patch-clamp electrophysiological experiments: Patch-clamp experiments were performed as previously described. […]
as §3, §2

BK channels [4] = target: T1, BK channels; experiment: Depolarization-induced steady-state whole cell outward BK currents, amphotericin B-perforated patch-clamp, freshly-isolated DSM cells; format: cell-based
Source text: as §1, with “DSM single cell isolation: Human single DSM cells” for “Patch-clamp electrophysiological experiments: Patch-clamp experiments”, “enzymatically isolated” for “performed”, “2012;” for “2012; Malysz J, Rovner E S, and Petkov G V. Single-channel biophysical and pharmacological characterizations of native human large-conductance calcium-activated potassium channels in freshly isolated detrusor smooth muscle cells. Pflugers Arch 465: 965-975, 2013;”
as §5, §3

[5] = system: human DSM isolated strips; experiment: Isometric tension recordings: spontaneous phasic contractions of DSM isolated strips; format: cell-based
Protocol: Human DSM specimen collection: The study forming the basis for the current disclosure was conducted according to protocol Pro00045232, reviewed and approved by the Medical University of South Carolina Institutional Review Board. […] The DSM tissue samples were obtained during open bladder surgeries performed for a variety of indications such as bladder cancer, including radical cystectomy for urothelial carcinoma, and adenocarcinoma. In such cases, the collected DSM tissue was remote from the site of tumor. DSM strips were dissected from the bladder specimens, and after removing the urothelial and lamina propria layers, the strips were used for single DSM cell isolation and isometric DSM tension recordings.
as §4
Solutions and drugs: Ca^2+-free dissection solution contained (in mM): 80 monosodium glutamate, 55 NaCl, 6 KCl, 10 glucose, 10 HEPES,2 MgCl2, and the pH was adjusted to 7.3 with NaOH. For the functional studies on human DSM contractility, the physiological saline solution had the following composition (in mM): 119 NaCl, 4.7 KCl, 24 NaHCO3, 1.2 KH2PO4, 2.5 CaCl2, 1.2 MgSO4, and 11 D-glucose, aerated with 95% O2-5% CO2 (pH 7.4). Extracellular (bath) solution used for the perforated whole cell patch-clamp experiments contained (in mM): 134 NaCl, 6 KCl, 1 MgCl2, 2 CaCl2, 10 glucose, 10 HEPES, and pH was adjusted to 7.4 with NaOH. The patch-pipette solution for the perforated patch-clamp experiments contained (in mM): 110 potassium aspartate, 30 KCl, 10 NaCl, 1 MgCl2, 10 HEPES, 0.05 EGTA, and pH was adjusted to 7.2 with NaOH. Amphotericin-B stock solution was prepared daily in dimethyl sulfoxide (DMSO) and was added to the pipette solution (200 μg/ml) before the experiment and was replaced every 1-2 h. Extracellular and patch-pipette solutions for single BK channel recordings contained (in mM): 140 KCl, 1.08 MgCl2, 5 EGTA, 10 HEPES, and 3.16 CaCl2, adjusted to pH 7.2 with NaOH (Ca^2+ free concentration was calculated ˜300 nM with WEBMAXC Standard, http://www.stanford.edu/˜cpatton/webmaxcS.htm, Chris Patton). […]
Data analysis and statistics: Clampfit 10.3 (Molecular Device, Union City, Calif.) and Minianalysis software (Synaptosoft, Inc., NJ) were used to analyze the data. Mean values of the last 50 ms pulse of 200 ms depolarization step of at least 5 average files in the absence (control) and in the presence of 17β-estradiol were analyzed to evaluate the effects of 17β-estradiol on steady-state whole cell BK currents. […] Five minutes of at least an 8-10 min stable patch-clamp recording prior to application of 17β-estradiol were analyzed for control data, and the last 5 min of continuous recordings of 10-15 min after application of 17β-estradiol were analyzed to evaluate the effects of 17β-estradiol on RMP or TBKCs. […]

[6] = 17β-estradiol 100 nM-1 μM, strips pre-incubated with paxilline (1 μM), n=5, N=5, P>0.05
[7] = 17β-estradiol 1 μM, n=8, N=5, P<0.05

T1 sequence (Q12791 whole entry): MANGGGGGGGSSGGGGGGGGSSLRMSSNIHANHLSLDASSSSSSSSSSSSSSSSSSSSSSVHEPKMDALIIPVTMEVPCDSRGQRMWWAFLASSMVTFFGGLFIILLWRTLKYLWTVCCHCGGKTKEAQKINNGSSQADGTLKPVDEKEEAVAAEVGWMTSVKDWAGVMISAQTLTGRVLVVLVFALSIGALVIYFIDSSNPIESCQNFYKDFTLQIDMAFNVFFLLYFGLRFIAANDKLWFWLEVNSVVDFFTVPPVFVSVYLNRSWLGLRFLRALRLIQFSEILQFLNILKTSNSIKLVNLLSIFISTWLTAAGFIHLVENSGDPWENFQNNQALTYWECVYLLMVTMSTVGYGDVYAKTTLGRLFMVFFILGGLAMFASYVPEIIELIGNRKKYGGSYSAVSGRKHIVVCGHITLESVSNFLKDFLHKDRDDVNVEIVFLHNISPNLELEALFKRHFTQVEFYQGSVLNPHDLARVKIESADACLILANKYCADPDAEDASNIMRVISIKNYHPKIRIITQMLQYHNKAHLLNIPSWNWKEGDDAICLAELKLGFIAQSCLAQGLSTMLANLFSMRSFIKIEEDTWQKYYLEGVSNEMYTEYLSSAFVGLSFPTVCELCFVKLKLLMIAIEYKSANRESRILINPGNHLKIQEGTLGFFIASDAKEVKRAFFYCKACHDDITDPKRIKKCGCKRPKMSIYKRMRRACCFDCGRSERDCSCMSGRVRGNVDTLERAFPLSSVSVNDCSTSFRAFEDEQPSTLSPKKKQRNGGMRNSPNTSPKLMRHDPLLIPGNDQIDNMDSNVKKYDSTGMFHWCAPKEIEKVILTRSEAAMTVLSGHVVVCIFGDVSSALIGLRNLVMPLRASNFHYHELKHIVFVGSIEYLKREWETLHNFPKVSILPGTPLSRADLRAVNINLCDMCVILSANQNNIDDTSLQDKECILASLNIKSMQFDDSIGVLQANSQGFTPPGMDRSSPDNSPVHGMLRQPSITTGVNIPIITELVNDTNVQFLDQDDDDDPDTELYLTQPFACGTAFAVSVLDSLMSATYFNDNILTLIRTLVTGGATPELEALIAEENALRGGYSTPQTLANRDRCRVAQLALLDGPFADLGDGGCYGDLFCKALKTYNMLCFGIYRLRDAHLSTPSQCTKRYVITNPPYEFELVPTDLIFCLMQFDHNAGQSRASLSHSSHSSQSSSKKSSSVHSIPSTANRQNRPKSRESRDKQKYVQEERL
T1 sequence (Q16558 whole entry): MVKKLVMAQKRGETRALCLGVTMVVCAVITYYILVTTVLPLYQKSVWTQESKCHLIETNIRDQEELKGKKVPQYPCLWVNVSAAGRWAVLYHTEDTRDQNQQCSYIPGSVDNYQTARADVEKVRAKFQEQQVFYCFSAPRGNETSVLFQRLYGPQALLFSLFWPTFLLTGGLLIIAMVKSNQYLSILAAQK

CC(C)(O)[C@H]1O[C@H]2CC[C@@]3(C)[C@@](O)(CC[C@H]4Cc5c([nH]c6ccccc56)[C@@]43C)C2=CC1=O [paxilline]
DSM cell RMP (human DSM cells; paxilline only (1 μM), n=8, N=5): −22.1±4.7 mV

C[C@]12CC[C@@H]3c4ccc(O)cc4CC[C@H]3[C@@H]1CC[C@@H]2O [17β-estradiol]
effect on KCl- and muscarinic receptor-induced contractions (pig DSM isolated strips): inhibitory effects | effect on average TBKC amplitude (BK channels [1]): without significantly altering | increase of the frequency of TBKCs (BK channels [1]; control taken as 100%, n=8, N=5, P<0.05): 74.6±37.8% | effect on EFS-induced contractions [2]: significantly inhibited | effect on pharmacologically-induced and nerve-evoked contractions (rat DSM isolated strips): decrease | single BK channel open probability (NPo) (BK channels [3]; Vh=−60 mV, control 0.086±0.030, P<0.05): 0.137±0.030 | single BK channel current amplitude (BK channels [3]; control 11.7±0.7 pA, P>0.05): 11.9±0.5 pA | effect on whole cell K+ current density (BK channels [4]; 17β-estradiol 100 nM, n=12, N=8, P<0.05): significantly increased | whole cell outward K+ currents (BK channels [4]; at +80 mV, 17β-estradiol 100 nM, control 33.9±6.5 pA/pF, n=12, N=8, P<0.05): 44.5±7.8 pA/pF | BK current amplitude (BK channels [4]; at +80 mV, both paxilline (1 μM) and 17β-estradiol (100 nM), vs 6.1±1.7 paxilline alone, P>0.05): 6.8±1.8 pA/pF | effect on muscle force integral [5, 6]: did not affect | effect on spontaneous phasic contraction amplitude [5, 6]: did not affect | decrease of muscle force integral [5, 7]: 44.4±13.2% | decrease of spontaneous phasic contraction amplitude [5, 7]: 53.3±8.9% | effect on phasic contraction frequency ([5]; 17β-estradiol 1 μM, n=8, N=5, P>0.05): without significantly changing | DSM cell RMP (human DSM cells; 17β-estradiol 100 nM, control −25.7±3.2 mV, n=11, N=9, P<0.05): −28.9±3.3 mV | hyperpolarization of the DSM cell RMP (human DSM cells; 17β-estradiol 100 nM, n=11, N=9, P<0.05): ~3 mV | DSM cell RMP (human DSM cells; 17β-estradiol in the presence of paxilline (1 μM), n=8, N=5, P>0.05): −21.9±4.4 mV
